Test: xn = mol fraction of the nth substance listed
Details: 101 kPa, Liquid, Vibrating tube method

CN(C)CCCN [N,N-dimethyl-1,3-propanediamine] + O
mass density [kg/m3]
Details | 318.15 K | 323.15 K | 328.15 K | 333.15 K | 338.15 K
x2 = 0 | – | 790.41 | 785.91 | 781.39 | 776.85
x2 = 0.0403 | – | 793.5 | 789 | 784.47 | 779.92
x2 = 0.0811 | – | 796.65 | 792.14 | 787.61 | 783.06
x2 = 0.1198 | – | 799.82 | 795.31 | 790.78 | 786.22
x2 = 0.16 | – | 803.3 | 798.79 | 794.25 | 789.69
x2 = 0.1996 | – | 806.9 | 802.39 | 797.86 | 793.3
x2 = 0.2498 | – | 811.82 | 807.31 | 802.78 | –
x2 = 0.2998 | – | 817.12 | 812.62 | 808.09 | –
x2 = 0.3499 | – | 822.81 | 818.31 | 813.78 | –
x2 = 0.3997 | – | 829.08 | 824.59 | 820.06 | –
x2 = 0.4501 | – | 836.03 | 831.54 | 827.01 | –
x2 = 0.4998 | – | 843.68 | 839.19 | 834.65 | –
x2 = 0.5501 | – | 852.33 | 847.84 | 843.3 | –
x2 = 0.5999 | 866.35 | 861.89 | 857.39 | 852.84 | –
x2 = 0.6498 | 877.08 | 872.61 | 868.1 | 863.55 | –
x2 = 0.7 | 889.3 | 884.83 | 880.31 | 875.74 | –
x2 = 0.7499 | 902.82 | 898.36 | 893.85 | 889.3 | –
x2 = 0.8 | 917.71 | 913.29 | 908.82 | 904.3 | –
x2 = 0.84 | 930.55 | 926.21 | 921.82 | 917.39 | –
x2 = 0.8799 | 943.86 | 939.69 | 935.48 | 931.22 | –
x2 = 0.9 | 950.58 | 946.58 | 942.52 | 938.42 | –
x2 = 0.92 | 957.27 | 953.52 | 949.71 | 945.84 | –
x2 = 0.94 | 963.99 | 960.6 | 957.12 | 953.56 | –
x2 = 0.9597 | 970.89 | 967.94 | 964.87 | 961.68 | –
x2 = 0.975 | 976.98 | 974.39 | 971.65 | 968.78 | –
x2 = 0.99 | 984.22 | 981.91 | 979.45 | 976.83 | –

Source: the NIST ThermoML archive (doi:10.1016/j.tca.2006.04.016)
